Target: T1, AcrB (Escherichia coli, UniProt P31224)
T1 construct: full-length, His-tagged (pET24acrBHis), from E. coli C43(DE3) delta-acrAB; homotrimer, DDM-solubilised; crystallised with DARPins
Experiment: X-ray co-crystal structure
Format: binding
Conditions: DARPin chaperone

T1 sequence (P31224 whole entry): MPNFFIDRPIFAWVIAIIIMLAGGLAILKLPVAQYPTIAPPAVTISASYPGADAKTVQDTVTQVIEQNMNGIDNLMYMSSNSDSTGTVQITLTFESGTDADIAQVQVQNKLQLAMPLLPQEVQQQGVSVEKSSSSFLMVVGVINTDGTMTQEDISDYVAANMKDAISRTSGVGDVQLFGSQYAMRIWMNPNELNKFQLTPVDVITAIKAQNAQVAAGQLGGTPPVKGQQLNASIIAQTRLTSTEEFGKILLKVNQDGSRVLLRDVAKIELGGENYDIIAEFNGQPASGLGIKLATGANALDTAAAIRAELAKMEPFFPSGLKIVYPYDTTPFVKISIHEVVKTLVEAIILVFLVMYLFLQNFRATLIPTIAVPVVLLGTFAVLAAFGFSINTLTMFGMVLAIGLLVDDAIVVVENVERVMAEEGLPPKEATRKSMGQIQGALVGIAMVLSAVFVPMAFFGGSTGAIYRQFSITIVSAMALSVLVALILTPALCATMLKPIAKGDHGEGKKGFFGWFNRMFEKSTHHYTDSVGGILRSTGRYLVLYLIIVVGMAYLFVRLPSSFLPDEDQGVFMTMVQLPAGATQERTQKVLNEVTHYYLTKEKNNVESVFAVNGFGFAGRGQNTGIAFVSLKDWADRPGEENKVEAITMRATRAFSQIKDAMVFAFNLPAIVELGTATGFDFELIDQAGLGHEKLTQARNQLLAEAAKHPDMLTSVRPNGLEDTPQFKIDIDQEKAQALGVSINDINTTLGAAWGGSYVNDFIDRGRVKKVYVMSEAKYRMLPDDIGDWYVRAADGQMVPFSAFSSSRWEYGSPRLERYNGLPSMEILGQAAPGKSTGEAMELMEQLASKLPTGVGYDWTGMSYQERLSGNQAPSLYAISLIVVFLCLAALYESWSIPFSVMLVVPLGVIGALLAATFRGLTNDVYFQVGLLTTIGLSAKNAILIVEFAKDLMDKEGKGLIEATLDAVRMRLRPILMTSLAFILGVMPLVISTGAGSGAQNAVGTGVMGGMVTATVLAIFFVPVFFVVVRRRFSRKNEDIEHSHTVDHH

CO[C@H]1/C=C/O[C@@]2(C)Oc3c(C)c(O)c4c(O)c(c(C=O)c(O)c4c3C2=O)NC(=O)/C(C)=C\C=C\[C@H](C)[C@H](O)[C@@H](C)[C@@H](O)[C@@H](C)[C@H](OC(C)=O)[C@@H]1C [3-formylrifamycin SV]
X-ray co-crystal structure (access pocket of L protomer, crystallised with 3 mM rifampicin): co-crystal AcrB/3-formylrifamycin SV (3-FOR) structure

CC(=O)O[C@H]1C[C@@]2(C)[C@@H](C[C@@H](O)[C@H]3[C@@]4(C)CC[C@@H](O)[C@@H](C)[C@@H]4CC[C@@]32C)/C1=C(\CCC=C(C)C)C(=O)O [fusidic acid]
X-ray co-crystal structure (T protomer: TMD-BP, TM1/TM2 groove and TM7/TM8 groove, co-crystallised with 1 mM each fusidic acid, erythromycin, linezolid, oxacillin): co-structure with FUA bound to a deep concave crevice surrounded by TM2, TM4, TM10-12

Reference: publication PMC8242077, “Allosteric drug transport mechanism of multidrug transporter AcrB” (Nature Communications, 2021)
